Test results taken from US20050203110A1, “Mitotic kinesin inhibitors” (priority 2002, published 2005).

Target: T1, human KSP motor domain (KSP(367H)) (Homo sapiens, UniProt P52732)
T1 construct: were used to amplify the motor domain and the neck linker region; made in house; host or cells: E. coli BL21 (DE3), pRSETa
T1 sequence (P52732 18-359 limits assumed): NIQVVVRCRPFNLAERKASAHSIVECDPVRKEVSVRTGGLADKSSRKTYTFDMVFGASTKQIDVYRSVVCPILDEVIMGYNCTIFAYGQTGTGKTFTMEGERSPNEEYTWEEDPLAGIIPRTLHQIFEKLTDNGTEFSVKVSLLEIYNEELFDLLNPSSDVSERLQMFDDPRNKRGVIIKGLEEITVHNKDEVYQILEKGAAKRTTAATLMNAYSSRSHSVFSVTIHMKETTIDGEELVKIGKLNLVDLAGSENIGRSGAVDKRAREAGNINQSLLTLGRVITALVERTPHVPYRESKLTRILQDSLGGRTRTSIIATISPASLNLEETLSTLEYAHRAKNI
Assay: Kinesin ATPase In Vitro Assay
Format: biochemical
Settings: kinesin motor domain with microtubules, 1 mM ATP, 23° C.; free phosphate by quinaldine red/ammonium molybdate, absorbance 540 nm
From the text: I. Kinesin ATPase In Vitro Assay
Cloning and Expression of Human Poly-Histidine Tagged KSP Motor Domain (KSP(367H))
Plasmids for the expression of the human KSP motor domain construct were cloned by PCR using a pBluescript full length human KSP construct (Blangy et al., Cell, vol. 83, pp1159-1169, 1995) as a template. The N-terminal primer 5′-[…] (SEQ.ID.NO.: 1) and the C-terminal primer 5′-[…] […] (SEQ.ID.NO.: 2) were used to amplify the motor domain and the neck linker region. The PCR products were digested with AseI and XhoI, ligated into the NdeI/XhoI digestion product of pRSETa (Invitrogen) and transformed into E. coli BL21 (DE3).
Cells were grown at 37° C. to an OD600 of 0.5. After cooling the culture to room temperature expression of KSP was induced with 100 μM IPTG and incubation was continued overnight. Cells were pelleted by centrifugation and washed once with ice-cold PBS. Pellets were flash-frozen and stored −80° C.
Cell pellets were thawed on ice and resuspended in lysis buffer (50 mM K-HEPES, pH 8.0, 250 mM KCl, 0.1% Tween, 10 mM imidazole, 0.5 mM Mg-ATP, 1 mM PMSF, 2 mM benzimidine, 1× complete protease inhibitor cocktail (Roche)). Cell suspensions were incubated with 1 mg/ml lysozyme and 5 mM β-mercaptoethanol on ice for 10 minutes, followed by sonication (3×30 sec). All subsequent procedures were performed at 4° C. Lysates were centrifuged at 40,000×g for 40 minutes. Supernatants were diluted and loaded onto an SP Sepharose column (Pharmacia, 5 ml cartridge) in buffer A (50 mM K-HEPES, pH 6.8, 1 mM MgCl2, 1 mM EGTA, 10 μM Mg-ATP, 1 mM DTT) and eluted with a 0 to 750 mM KCl gradient in buffer A. Fractions containing KSP were pooled and incubated with Ni-NTA resin (Qiagen) for one hour. The resin was washed three times with buffer B (Lysis buffer minus PMSF and protease inhibitor cocktail), followed by three 15-minute incubations and washes with buffer B. Finally, the resin was incubated and washed for 15 minutes three times with buffer C (same as buffer B except for pH 6.0) and poured into a column. […]
The kinesin motor domain is incubated with microtubules, 1 mM ATP (1:1 MgCl2:Na-ATP), and compound at 23° C. in buffer containing 80 mM K-HEPES (pH 7.0), 1 mM EGTA, 1 mM DTT, 1 mM MgCl2, and 50 mM KCl. […] Free phosphate from the ATP hydrolysis reaction is measured via a quinaldine red/ammonium molybdate assay by adding 150 μl of quench C buffer containing a 2:1 ratio of quench A:quench B. Quench A contains 0.1 mg/ml quinaldine red and 0.14% polyvinyl alcohol; quench B contains 12.3 mM ammonium molybdate tetrahydrate in 1.15 M sulfuric acid. The reaction is incubated for 10 minutes at 23° C., and the absorbance of the phospho-molybdate complex is measured at 540 nm.

Row | IC50 | Compound
1 | ≤ 50 µM | CCC(c1nc2cnccc2c(=O)n1Cc1ccccc1)N(CCN(C)C)C(=O)c1ccc(Br)cc1 (racemic) [Compound 3-7, 2-[1′-(N-4-bromobenzoyl)-(N,N-dimethylethylenediamino)propyl]-3-benzyl-pyrido[3,4-d]pyrimidin-4(3H)-one]
2 | ≤ 50 µM | CCC(c1nc2ncccc2c(=O)n1Cc1ccccc1)N(CCN(C)C)C(=O)c1ccc(Br)cc1 (stereo not shown) [Compound 1-6, N-[1-(3-benzyl-4-oxo-3,4-dihydropyrido[2,3-d]pyrimidin-2-yl)propyl]-4-bromo-N-[2-(dimethylamino)ethyl]benzamide]
3 | ≤ 50 µM | CCC(c1nc2c(c(=O)n1Cc1ccccc1)CCCN2)N(CCN(C)C)C(=O)c1ccc(Br)cc1 (stereo not shown) [Compound 2-2, N-[1-(3-benzyl-4-oxo-3,4,5,6,7,8-hexahydropyrido[2,3-d]pyrimidin-2-yl)propyl]4-bromo-N-[2-(dimethylamino)ethyl]benzamide]
4 | ≤ 50 µM | CCC(c1nc2cccnc2c(=O)n1Cc1ccccc1)N(CCN(C)C)C(=O)c1ccc(Br)cc1 (stereo not shown) [Compound 5-6, N-[1-(3-benzyl-4-oxo-3,4-dihydropyrido[3,2-d]pyrimidin-2-yl)propyl]-4-bromo-N-[2-(dimethylamino)ethyl]benzamide]
